Laboratory results from US20170050957A1, “4-AMINO-6-(HETEROCYCLIC)PICOLINATES AND 6-AMINO-2-(HETEROCYCLIC)PYRIMIDINE-4-CARBOXYLATES AND THEIR USE AS HERBICIDES” (Dow AgroSciences LLC, priority 2013, published 2017).
Like-named read-outs stand apart in the source and are kept apart here.

Assays:
[1] = test system: Key Broadleaf Weed and Crop Species; test: Post-emergent Test II herbicidal activity (Table 15); format: in vivo; conditions: post-emergence, 336 h, 14 d; for pest or weed control at 35 g/ha: 35 g ai/ha; for pest or weed control at 70 g/ha: 70 g ai/ha; for pest or weed control at 140 g/ha: 140 g ai/ha; for pest or weed control at 280 g/ha: 280 g ai/ha
In short: (§1)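 Post-emergence spray; seedlings 7-21 d old, 1st-2nd true leaf; 187 L/ha; serial rates 1×-1/16×; solvent blank controls; subirrigated; visual % injury at 14 d.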

[2] = test system: Key Grass and Sedge Weeds as well as Grass Crops; test: Post-emergent Test II herbicidal activity (Table 16); format: in vivo; conditions: post-emergence, 336 h, 14 days after application; for pest or weed control at 35 g/ha: 35 g ai/ha; for pest or weed control at 70 g/ha: 70 g ai/ha; for pest or weed control at 140 g/ha: 140 g ai/ha; for pest or weed control at 280 g/ha: 280 g ai/ha
In short: as §1

[3] = Abutilon theophrasti, velvetleaf (Abutilon theophrasti), read-out: Visual Growth Reduction (%) 14 Days After Application, ABUTH
[4] = Amaranthus retroflexus, redroot pigweed (Amaranthus retroflexus), read-out: Visual Growth Reduction (%) 14 Days After Application, AMARE
[5] = Brassica napus, oilseed rape, canola (Brassica napus), read-out: Visual Growth Reduction (%) 14 Days After Application, BRSNN
[6] = Chenopodium album, lambsquarters (Chenopodium album), read-out: Visual Growth Reduction (%) 14 Days After Application, CHEAL
[7] = Euphorbia heterophylla, wild poinsettia (Euphorbia heterophylla), read-out: Visual Growth Reduction (%) 14 Days After Application, EPHHL
[8] = Helianthus annuus, sunflower (Helianthus annuus), read-out: Visual Growth Reduction (%) 14 Days After Application, HELAN
[9] = Cyperus esculentus, yellow nutsedge (Cyperus esculentus), read-out: Visual Growth Reduction (%) 14 Days After Application CYPES
[10] = Echinochloa crus-galli, barnyardgrass (Echinochloa crus-galli), read-out: Visual Growth Reduction (%) 14 Days After Application ECHCG
[11] = Oryza sativa, rice (Oryza sativa), read-out: Visual Growth Reduction (%) 14 Days After Application ORYSA
[12] = Setaria faberi, giant foxtail (Setaria faberi), read-out: Visual Growth Reduction (%) 14 Days After Application SETFA
[13] = Triticum aestivum, wheat, spring (Triticum aestivum), read-out: Visual Growth Reduction (%) 14 Days After Application TRZAS
[14] = Zea mays, maize, corn (Zea mays), read-out: Visual Growth Reduction (%) 14 Days After Application ZEAMX

Question: How did the pest or weed control at 35 g/ha [1, 3] turn out when `COC(=O)c1nc(-c2ccc3ccsc3c2)cc(N)c1Cl` [Compound 3.15] was run?
Answer: 85 to 94%

Question: What about the pest or weed control at 70 g/ha [1, 3] of the same compound?
Answer: 95 to 100%

Question: And the pest or weed control at 140 g/ha [1, 3]?
Answer: 95 to 100%

Question: What about the pest or weed control at 35 g/ha [1, 4] of the same compound?
Answer: 95 to 100%

Question: And the pest or weed control at 70 g/ha [1, 4]?
Answer: 95 to 100%

Question: And the pest or weed control at 140 g/ha [1, 4]?
Answer: 95 to 100%

Question: And the pest or weed control at 35 g/ha [1, 5]?
Answer: 30 to 44%

Question: What about the pest or weed control at 70 g/ha [1, 5] of the same compound?
Answer: 45 to 59%

Question: And the pest or weed control at 140 g/ha [1, 5]?
Answer: 45 to 59%

Question: And the pest or weed control at 35 g/ha [1, 6]?
Answer: 85 to 94%

Question: And the pest or weed control at 70 g/ha [1, 6]?
Answer: 85 to 94%

Question: And the pest or weed control at 140 g/ha [1, 6]?
Answer: 95 to 100%

Question: What about the pest or weed control at 35 g/ha [1, 7] of the same compound?
Answer: 75 to 84%

Question: And the pest or weed control at 70 g/ha [1, 7]?
Answer: 75 to 84%

Question: What about the pest or weed control at 140 g/ha [1, 7] of the same compound?
Answer: 85 to 94%

Question: And the pest or weed control at 35 g/ha [1, 8]?
Answer: 60 to 74%

Question: What about the pest or weed control at 70 g/ha [1, 8] of the same compound?
Answer: 60 to 74%

Question: What about the pest or weed control at 140 g/ha [1, 8] of the same compound?
Answer: 85 to 94%

Question: And the pest or weed control at 35 g/ha [2, 9]?
Answer: 0 to 29%

Question: And the pest or weed control at 70 g/ha [2, 9]?
Answer: 0 to 29%

Question: And the pest or weed control at 140 g/ha [2, 9]?
Answer: 0 to 29%

Question: What about the pest or weed control at 35 g/ha [2, 10] of the same compound?
Answer: 75 to 84%

Question: And the pest or weed control at 70 g/ha [2, 10]?
Answer: 75 to 84%

Question: What about the pest or weed control at 140 g/ha [2, 10] of the same compound?
Answer: 95 to 100%

Question: And the pest or weed control at 35 g/ha [2, 11]?
Answer: 0 to 29%

Question: What about the pest or weed control at 70 g/ha [2, 11] of the same compound?
Answer: 0 to 29%

Question: What about the pest or weed control at 140 g/ha [2, 11] of the same compound?
Answer: 0 to 29%

Question: What about the pest or weed control at 35 g/ha [2, 12] of the same compound?
Answer: 0 to 29%

Question: What about the pest or weed control at 70 g/ha [2, 12] of the same compound?
Answer: 0 to 29%

Question: What about the pest or weed control at 140 g/ha [2, 12] of the same compound?
Answer: 0 to 29%

Question: And the pest or weed control at 35 g/ha [2, 13]?
Answer: 0 to 29%

Question: What about the pest or weed control at 70 g/ha [2, 13] of the same compound?
Answer: 0 to 29%

Question: And the pest or weed control at 140 g/ha [2, 13]?
Answer: 0 to 29%

Question: And the pest or weed control at 35 g/ha [2, 14]?
Answer: 60 to 74%

Question: What about the pest or weed control at 70 g/ha [2, 14] of the same compound?
Answer: 60 to 74%

Question: What about the pest or weed control at 140 g/ha [2, 14] of the same compound?
Answer: 60 to 74%

Question: With `COC(=O)c1nc(-c2cccc3ccsc23)cc(N)c1Cl` [Compound 3.27] as the compound, how does the pest or weed control at 35 g/ha [1, 3] read?
Answer: 0 to 29%

Question: What about the pest or weed control at 70 g/ha [1, 3] of the same compound?
Answer: 0 to 29%

Question: And the pest or weed control at 140 g/ha [1, 3]?
Answer: 45 to 59%

Question: What about the pest or weed control at 280 g/ha [1, 3] of the same compound?
Answer: 75 to 84%

Question: And the pest or weed control at 35 g/ha [1, 4]?
Answer: 85 to 94%

Question: What about the pest or weed control at 70 g/ha [1, 4] of the same compound?
Answer: 95 to 100%

Question: What about the pest or weed control at 140 g/ha [1, 4] of the same compound?
Answer: 95 to 100%

Question: What about the pest or weed control at 280 g/ha [1, 4] of the same compound?
Answer: 95 to 100%

Question: What about the pest or weed control at 35 g/ha [1, 5] of the same compound?
Answer: 45 to 59%

Question: And the pest or weed control at 70 g/ha [1, 5]?
Answer: 60 to 74%

Question: What about the pest or weed control at 140 g/ha [1, 5] of the same compound?
Answer: 60 to 74%

Question: And the pest or weed control at 280 g/ha [1, 5]?
Answer: 85 to 94%

Question: What about the pest or weed control at 35 g/ha [1, 6] of the same compound?
Answer: 75 to 84%

Question: What about the pest or weed control at 70 g/ha [1, 6] of the same compound?
Answer: 85 to 94%

Question: And the pest or weed control at 140 g/ha [1, 6]?
Answer: 95 to 100%

Question: What about the pest or weed control at 280 g/ha [1, 6] of the same compound?
Answer: 95 to 100%

Question: And the pest or weed control at 35 g/ha [1, 7]?
Answer: 0 to 29%

Question: What about the pest or weed control at 70 g/ha [1, 7] of the same compound?
Answer: 0 to 29%

Question: And the pest or weed control at 140 g/ha [1, 7]?
Answer: 0 to 29%

Question: And the pest or weed control at 280 g/ha [1, 7]?
Answer: 0 to 29%

Question: And the pest or weed control at 35 g/ha [1, 8]?
Answer: 45 to 59%

Question: And the pest or weed control at 70 g/ha [1, 8]?
Answer: 60 to 74%

Question: What about the pest or weed control at 140 g/ha [1, 8] of the same compound?
Answer: 75 to 84%

Question: And the pest or weed control at 280 g/ha [1, 8]?
Answer: 85 to 94%

Question: And the pest or weed control at 35 g/ha [2, 9]?
Answer: 0 to 29%

Question: And the pest or weed control at 70 g/ha [2, 9]?
Answer: 0 to 29%

Question: What about the pest or weed control at 140 g/ha [2, 9] of the same compound?
Answer: 0 to 29%

Question: And the pest or weed control at 280 g/ha [2, 9]?
Answer: 0 to 29%

Question: What about the pest or weed control at 35 g/ha [2, 10] of the same compound?
Answer: 0 to 29%

Question: And the pest or weed control at 70 g/ha [2, 10]?
Answer: 0 to 29%

Question: What about the pest or weed control at 140 g/ha [2, 10] of the same compound?
Answer: 0 to 29%

Question: And the pest or weed control at 280 g/ha [2, 10]?
Answer: 0 to 29%

Question: What about the pest or weed control at 35 g/ha [2, 11] of the same compound?
Answer: 0 to 29%

Question: And the pest or weed control at 70 g/ha [2, 11]?
Answer: 0 to 29%

Question: What about the pest or weed control at 140 g/ha [2, 11] of the same compound?
Answer: 0 to 29%

Question: What about the pest or weed control at 280 g/ha [2, 11] of the same compound?
Answer: 0 to 29%

Question: And the pest or weed control at 35 g/ha [2, 12]?
Answer: 0 to 29%

Question: And the pest or weed control at 70 g/ha [2, 12]?
Answer: 0 to 29%

Question: And the pest or weed control at 140 g/ha [2, 12]?
Answer: 0 to 29%

Question: What about the pest or weed control at 280 g/ha [2, 12] of the same compound?
Answer: 0 to 29%

Question: And the pest or weed control at 35 g/ha [2, 13]?
Answer: 0 to 29%

Question: What about the pest or weed control at 70 g/ha [2, 13] of the same compound?
Answer: 0 to 29%

Question: What about the pest or weed control at 140 g/ha [2, 13] of the same compound?
Answer: 0 to 29%

Question: What about the pest or weed control at 280 g/ha [2, 13] of the same compound?
Answer: 0 to 29%

Question: What about the pest or weed control at 35 g/ha [2, 14] of the same compound?
Answer: 0 to 29%

Question: What about the pest or weed control at 70 g/ha [2, 14] of the same compound?
Answer: 0 to 29%

Question: And the pest or weed control at 140 g/ha [2, 14]?
Answer: 0 to 29%

Question: And the pest or weed control at 280 g/ha [2, 14]?
Answer: 0 to 29%
